Experimental data taken from paper PMC8835363, “Arachidin-1, a Prenylated Stilbenoid from Peanut, Induces Apoptosis in Triple-Negative Breast Cancer Cells” (International Journal of Molecular Sciences, 2022).
pIC50: −log10 of the molar value. Where two headings read alike, the source gives them in different places.

Tests used:
MDA-MB-231 cells = experiment: RealTime-Glo MT cell viability (cytotoxicity) assay; format: cell-based, human; details: MDA-MB-231; for pIC50: Homo sapiens
Protocol: (§1) The cytotoxicity of RES, A-1, and A-3 was measured using the RealTime-Glo^TM MT Cell Viability Assay (Promega, Madison, WI, USA). The cells (10,000 cells/well) were seeded into 96-well plates. […] Cells with 0.1% DMSO (ATCC; Manassas, VA, USA) were included as a control. Luminescence was measured every 12 h for 72 total hours in a Cytation^TM 5 (BioTek, Winooski, VT, USA) plate reader. All experiments were performed in triplicates.

MDA-MB-436 cells = experiment: as above; format: cell-based, human; details: MDA-MB-436
Protocol: as §1

[1] = tested on: human leukemia HL-60 cell line; parameters: method as in PMID 21067217; details: 72 h treatment; cited from earlier work
[2] = tested on: UDP-glucuronosyltransferases; details: in vitro metabolism; cited from earlier work
MCF-7 cells = tested on: MCF-7 cells; parameters: method as in PMID 32721999, PMID 33643572; details: cited from earlier work
MDA-MB-231 = tested on: MDA-MB-231; parameters: method as in PMID 32721999, PMID 33643572; details: 24 h treatment, MTT assay; cited from earlier work
[3] = MDA-MB-231, 24 h, 24 h, in Figure 2 panels
[4] = MDA-MB-231, 24 h, 24 h of treatment
[5] = MDA-MB-231, 48 h, 48 h of treatment
[6] = MDA-MB-231, 72 h, 72 h of treatment
[7] = Homo sapiens, MDA-MB-436, 24 h, 24 h
[8] = Homo sapiens, MDA-MB-436, 24 h, 24 h, in Figure 2 panels
[9] = Homo sapiens, MDA-MB-436, 48 h, 48 h
[10] = Homo sapiens, MDA-MB-436, 72 h, 72 h

Row | SMILES | pIC50 (MDA-MB-231 cells; [3]) | pIC50 (MDA-MB-231 cells; [4]) | pIC50 (MDA-MB-231 cells; [5]) | pIC50 (MDA-MB-231 cells; [6]) | growth inhibition at low concentrations (MDA-MB-231 cells; 0.01-10 µM, 72 h) | pIC50 (MDA-MB-436 cells; [7]) | pIC50 (MDA-MB-436 cells; [8]) | pIC50 (MDA-MB-436 cells; [9]) | pIC50 (MDA-MB-436 cells; [10]) | growth inhibition at low concentrations (MDA-MB-436 cells; 0.01-10 µM, 72 h) | pIC50 (MDA-MB-436 cells; 72 h) | pIC50 [1] | glucuronidated products compared to non-prenylated analogs piceatannol and RES [2] | pIC50 (MDA-MB-231 cells; MDA-MB-231, 48 h, 48 h, in Figure 2 panels) | pIC50 (MCF-7 cells; 24 h treatment) | pIC50 (MCF-7 cells; 48 h treatment) | pIC50 (MDA-MB-231)
1 | CC(C)/C=C/c1c(O)cc(/C=C/c2ccc(O)cc2)cc1O [A-3, arachidin-3] | 5.02 | 4.73 | 4.79 | 4.73 | no growth inhibition below 10 µM | 4.96 | 4.96 | 4.78 | 4.70 | no growth inhibition below 10 µM | 4.70 | 4.72 | lower glucuronidated products |  |  |  | 
2 | Oc1ccc(/C=C/c2cc(O)cc(O)c2)cc1 [RES, resveratrol, reference compound] | 5.20 | 4.49 | 5.18 | 4.96 |  | 4.43 | 5.04 | 4.62 | 4.81 |  |  | 4.75 |  | 4.94 | 3.88 | 4.08 | 3.84
